Where “and” joins values, the source holds several entries; their conditions need not be identical. Equal values may be shown once. Read-outs that look alike come from different tables or passages of the source.
Assays:
CgBdf1 BD1 [1] = target: CgBdf1 BD1 (Candida glabrata, UniProt Q6FWV7); experiment: HTRF assay, inhibition of H4ac4 peptide binding; design: species or system C. glabrata
CgBdf1 BD2 [2] = target: CgBdf1 BD2 (Candida glabrata, UniProt Q6FWV7); experiment: biochemical; format: binding, C. glabrata
CgBdf1 BD2 (Candida glabrata, UniProt Q6FWV7), sequence (Q6FWV7 entry or part of it): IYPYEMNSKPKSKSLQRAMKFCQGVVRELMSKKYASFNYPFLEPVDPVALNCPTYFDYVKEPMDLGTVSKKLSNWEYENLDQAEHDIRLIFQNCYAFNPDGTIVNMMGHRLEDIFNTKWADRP

human Brd4 BD1 = human Brd4 BD1 (Homo sapiens, UniProt O60885); experiment: HTRF assay, inhibition of H4ac4 peptide binding
human Brd4 BD2 = target: T1, human Brd4 BD2 (Homo sapiens, UniProt O60885); experiment: HTRF assay, inhibition of H4ac4 peptide binding; conditions: Table S3; estimate, preliminary single-replicate HTRF assay; read-out: IC50 Brd4 BD2
T1 construct: GST‐tagged BD2 (residues 349–460) from human Brd4 (UniProt ID O60885); purchased Reaction Biology Corp

CgBdf1 BD1 [3] = experiment: Histone peptide array assay; conditions: for Normalized (0 to 100%), WT / Normalized (0 to 100%), YF mutant: mean of the two raw values
Procedure: (§1) The array was prepared as described in the manufacturer's instructions. […] The array was then washed three times with binding buffer. Anti‐GST antibody (GE Healthcare) was used for the detection of GST‐tagged bromodomains.

CgBdf1 BD2 [4] = experiment: Histone peptide array assay; conditions: for Normalized (0 to 100%), WT / Normalized (0 to 100%), YF mutant: mean of the two raw values
Procedure: as §1

[5] = tested on: C. glabrata strains expressing WT and mutant Bdf1; experiment: Growth inhibition in liquid media, C. glabrata lab strains; conditions: for EC50: Nakaseomyces glabratus, single experiments Exp1-3
Procedure: (§2) Growth on Liquid Media with C. glabrata Lab Strains: Cells were grown at 30 °C in SC+M+C‐U medium (SC medium with 5 mM methionine, 0.25 mM cysteine, without uracil) to an OD600 of 0.5–0.8. […] Plates were incubated at 30 °C and OD600 was measured using a Multiskan FC Microplate Photometer (Thermo Fisher).

[6] = tested on: C. glabrata expressing humanized Bdf1 (Brd4 BDs); experiment: Growth inhibition in liquid media, humanized C. glabrata strains; conditions: Fig 3E, 50 µM, Exp 1-3
Procedure: as §2

[7] = Fig 2C original data, analogs of 24, single experiments Exp1-3, read-out: pIC50 CgBD1 (converted)
[8] = Fig 2C original data, analogs of 24, single experiments Exp1-3, read-out: pIC50 CgBD2 (converted)
[9] = read-out: pEC50 (WT BDF1), Fig 2D (converted), WT C. glabrata
[10] = read-out: pEC50 growth inhibition, Fig 2C (converted), strain BD1 Y-F
[11] = peptide array signal, CgBdf1 BD1 WT, first replicate column
[12] = peptide array signal, CgBdf1 BD1 WT
[13] = peptide array signal, CgBdf1 BD1 WT, second replicate column
[14] = peptide array signal, CgBdf1 BD1 YF mutant, first replicate column
[15] = peptide array signal, CgBdf1 BD1 YF mutant
[16] = peptide array signal, CgBdf1 BD1 YF mutant, second replicate column
[17] = peptide array signal, CgBdf1 BD2 WT, first replicate column
[18] = peptide array signal, CgBdf1 BD2 WT
[19] = peptide array signal, CgBdf1 BD2 WT, second replicate column
[20] = peptide array signal, CgBdf1 BD2 YF mutant, first replicate column
[21] = peptide array signal, CgBdf1 BD2 YF mutant
[22] = peptide array signal, CgBdf1 BD2 YF mutant, second replicate column

CgBdf1 BD1 (Candida glabrata, UniProt Q6FWV7), sequence (Q6FWV7 entry or part of it): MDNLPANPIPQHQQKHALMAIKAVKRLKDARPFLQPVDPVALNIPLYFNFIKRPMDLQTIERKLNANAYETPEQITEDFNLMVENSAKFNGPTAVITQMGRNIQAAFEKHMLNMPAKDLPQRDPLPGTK

| Structure (SMILES) | Raw data, WT (CgBdf1 BD1 [3]; [11]) | Normalized (0 to 100%), WT (CgBdf1 BD1 [3]; [12]) | Raw data, WT (CgBdf1 BD1 [3]; [13]) | Raw data, YF mutant (CgBdf1 BD1 [3]; [14]) | Normalized (0 to 100%), YF mutant (CgBdf1 BD1 [3]; [15]) | Raw data, YF mutant (CgBdf1 BD1 [3]; [16]) | Raw data, WT (CgBdf1 BD2 [4]; [17]) | Normalized (0 to 100%), WT (CgBdf1 BD2 [4]; [18]) | Raw data, WT (CgBdf1 BD2 [4]; [19]) | Raw data, YF mutant (CgBdf1 BD2 [4]; [20]) | Normalized (0 to 100%), YF mutant (CgBdf1 BD2 [4]; [21]) | Raw data, YF mutant (CgBdf1 BD2 [4]; [22]) | also measured |
| --- | --- | --- | --- | --- | --- | --- | --- | --- | --- | --- | --- | --- | --- |
| COc1ccc(CNc2nc(-c3ccccc3)nnc2C)cc1 [Compound 10] |  |  |  |  |  |  |  |  |  |  |  |  | IC50 (CgBdf1 BD1 [1]; [7]): 2.28 µM and 2.58 µM and 1.86 µM; IC50 (CgBdf1 BD1 [1]; Table S3, estimate, preliminary single-replicate HTRF assay, read-out: IC50 CgBdf1 BD1): 5 µM; IC50 (CgBdf1 BD2 [2]; [8]): > 100 µM; IC50 (CgBdf1 BD2 [2]; Table S3, estimate, preliminary single-replicate HTRF assay, read-out: IC50 CgBdf1 BD2): > 20 µM; IC50 (human Brd4 BD1): > 20 µM; IC50 (human Brd4 BD2): > 20 µM; Normalized (0 to 100%), WT, Average (CgBdf1 BD1 [3]; CgBdf1 BD1 WT, normalized peptide array signal): 2.21%; Raw data, WT, Left (CgBdf1 BD1 [3]; CgBdf1 BD1 WT, peptide array signal, left replicate): 0.006616; Raw data, WT, Rigt (CgBdf1 BD1 [3]; CgBdf1 BD1 WT, peptide array signal, right replicate): 0.03749; Normalized (0 to 100%), YF mutant, Average (CgBdf1 BD1 [3]; CgBdf1 BD1 YF mutant, normalized peptide array signal): 0.293%; Raw data, YF mutant, Left (CgBdf1 BD1 [3]; CgBdf1 BD1 YF mutant, peptide array signal, left replicate): 0.003085; Raw data, YF mutant, Right (CgBdf1 BD1 [3]; CgBdf1 BD1 YF mutant, peptide array signal, right replicate): 0.002776; Normalized (0 to 100%), WT, Average (CgBdf1 BD2 [4]; CgBdf1 BD2 WT, normalized peptide array signal): 0.608%; Raw data, WT, Left (CgBdf1 BD2 [4]; CgBdf1 BD2 WT, peptide array signal, left replicate): 0.004055; Raw data, WT, Rigt (CgBdf1 BD2 [4]; CgBdf1 BD2 WT, peptide array signal, right replicate): 0.00811; Normalized (0 to 100%), YF mutant, Average (CgBdf1 BD2 [4]; CgBdf1 BD2 YF mutant, normalized peptide array signal): 0.859%; Raw data, YF mutant, Left (CgBdf1 BD2 [4]; CgBdf1 BD2 YF mutant, peptide array signal, left replicate): 0.01319; Raw data, YF mutant, Right (CgBdf1 BD2 [4]; CgBdf1 BD2 YF mutant, peptide array signal, right replicate): 0.003988; EC50 [5, 9]: 180 µM; EC50 [5, 10]: 149 µM |
| Cc1ccc(-c2nnc(C)c(NCc3ccccc3)n2)cc1 [Compound 24m, N‐benzyl‐6‐methyl‐3‐(p‐tolyl)‐1,2,4‐triazin‐5‐amine] |  |  |  |  |  |  |  |  |  |  |  |  | IC50 (CgBdf1 BD1 [1]; [7]): > 20 µM; IC50 (CgBdf1 BD2 [2]; [8]): > 20 µM; EC50 [5, 9]: > 251 µM; EC50 [5, 10]: > 251 µM; EC50 ([5]; read-out: pEC50 growth inhibition, Fig 2C (converted), strain BD2 Y-F): > 251 µM |
| CCOC(=N)c1ccc(C)cc1 [Compound 65] | 0.0009452 | 1.47% | 0.02836 | 0.001851 | 0.247% | 0.003085 | 0.004991 | 0.421% | 0.003431 | 0.007362 | 0.383% | 0.0003067 |  |
| Cc1ccc(C(=N)NN)cc1 [Compound 66] | 0.007561 | 2.32% | 0.03875 | 0.003085 | 0.308% | 0.003085 | 0.007798 | 0.717% | 0.00655 | 0.005521 | 0.276% | 0 |  |
| Cc1ccc(-c2nc(=O)c(C)n[nH]2)cc1 [Compound 67] | 0.09956 | 16% | 0.2253 | 0.002159 | 0.308% | 0.00401 | 0.06082 | 11% | 0.1541 | 0.007975 | 0.613% | 0.004294 |  |
| Cc1ccc(-c2nnc(C)c(Cl)n2)cc1 [Compound 68] | 0.003466 | 2.19% | 0.04033 | 0.003085 | 0.355% | 0.00401 | 0.004679 | 0.624% | 0.007798 | 0.004601 | 0.23% | 0 |  |
| CCNC(=O)C[C@@H]1N=C(c2ccc(Cl)cc2)c2cc(OC)ccc2-n2c(C)nnc21 [I-BET762] |  |  |  |  |  |  |  |  |  |  |  |  | %Growth ([5]; Fig 3E, 50 µM, WT BDF1-flag, Exp 1-3): 107% and 101%; %Growth ([6]; BDF1-hBD1-flag): 102% and 95% and 92%; %Growth ([6]; BDF1-hBD2-flag): 105% and 93% and 100%; %Growth ([6]; humanized BDF1-flag): 83% |

From paper PMC11904993, “Humanized Candida and NanoBiT Assays Expedite Discovery of Bdf1 Bromodomain Inhibitors With Antifungal Potential” (Advanced Science, 2025)
